Activity calls are given as the source filed them. No rule for the calls is given here.
Tested on: CCRIS mutagenicity, Ames/micronucleus/aberration tests
Assay: CCRIS mutagenicity studies
[1] = Test System: AMES SALMONELLA TYPHIMURIUM, Strain/Indicator: TA98, Metabolic Activation: NONE, Method: STANDARD PLATE
[2] = Test System: AMES SALMONELLA TYPHIMURIUM, Strain/Indicator: TA100, Metabolic Activation: NONE, Method: STANDARD PLATE
[3] = Test System: AMES SALMONELLA TYPHIMURIUM, Strain/Indicator: TA1537, Metabolic Activation: NONE, Method: STANDARD PLATE
[4] = Test System: AMES SALMONELLA TYPHIMURIUM, Strain/Indicator: TA98, Metabolic Activation: NONE, Method: PREINCUBATION
[5] = Test System: AMES SALMONELLA TYPHIMURIUM, Strain/Indicator: TA100, Metabolic Activation: NONE, Method: PREINCUBATION
[6] = Test System: AMES SALMONELLA TYPHIMURIUM, Strain/Indicator: TA98, Metabolic Activation: RAT, LIVER, S-9, AROCLOR 1254, Method: STANDARD PLATE
[7] = Test System: AMES SALMONELLA TYPHIMURIUM, Strain/Indicator: TA100, Metabolic Activation: RAT, LIVER, S-9, AROCLOR 1254, Method: STANDARD PLATE
[8] = Test System: AMES SALMONELLA TYPHIMURIUM, Strain/Indicator: TA1535, Metabolic Activation: NONE, Method: PREINCUBATION

Question: Which results are given for `O=C([O-])c1ccc2ccccc2c1.[Mn+2].[O-]C(O)c1ccc2ccccc2c1`?
Answer: mutagenic call (Test System: AMES SALMONELLA TYPHIMURIUM, Strain/Indicator: TA98, Metabolic Activation: HAMSTER, LIVER, S-9, AROCLOR 1254 (10%), Method: STANDARD PLATE): inactive; negative; mutagenic call [1]: inactive; negative; mutagenic call (Test System: AMES SALMONELLA TYPHIMURIUM, Strain/Indicator: TA98, Metabolic Activation: RAT, LIVER, S-9, AROCLOR 1254 (10%), Method: STANDARD PLATE): inactive; negative; mutagenic call (Test System: AMES SALMONELLA TYPHIMURIUM, Strain/Indicator: TA100, Metabolic Activation: HAMSTER, LIVER, S-9, AROCLOR 1254 (10%), Method: STANDARD PLATE): inactive; negative; mutagenic call [2]: inactive; negative; mutagenic call (Test System: AMES SALMONELLA TYPHIMURIUM, Strain/Indicator: TA100, Metabolic Activation: RAT, LIVER, S-9, AROCLOR 1254 (10%), Method: STANDARD PLATE): inactive; negative; mutagenic call (Test System: AMES SALMONELLA TYPHIMURIUM, Strain/Indicator: TA1535, Metabolic Activation: HAMSTER, LIVER, S-9, AROCLOR 1254 (10%), Method: STANDARD PLATE): inactive; negative; mutagenic call (Test System: AMES SALMONELLA TYPHIMURIUM, Strain/Indicator: TA1535, Metabolic Activation: NONE, Method: STANDARD PLATE): inactive; negative; mutagenic call (Test System: AMES SALMONELLA TYPHIMURIUM, Strain/Indicator: TA1535, Metabolic Activation: RAT, LIVER, S-9, AROCLOR 1254 (10%), Method: STANDARD PLATE): inactive; negative; mutagenic call (Test System: AMES SALMONELLA TYPHIMURIUM, Strain/Indicator: TA1537, Metabolic Activation: HAMSTER, LIVER, S-9, AROCLOR 1254 (10%), Method: STANDARD PLATE): inactive; negative; mutagenic call [3]: inactive; negative; mutagenic call (Test System: AMES SALMONELLA TYPHIMURIUM, Strain/Indicator: TA1537, Metabolic Activation: RAT, LIVER, S-9, AROCLOR 1254 (10%), Method: STANDARD PLATE): inactive; negative; mutagenic call (Test System: AMES SALMONELLA TYPHIMURIUM, Strain/Indicator: TA1538, Metabolic Activation: HAMSTER, LIVER, S-9, AROCLOR 1254 (10%), Method: STANDARD PLATE): inactive; negative; mutagenic call (Test System: AMES SALMONELLA TYPHIMURIUM, Strain/Indicator: TA1538, Metabolic Activation: NONE, Method: STANDARD PLATE): inactive; negative; mutagenic call (Test System: AMES SALMONELLA TYPHIMURIUM, Strain/Indicator: TA1538, Metabolic Activation: RAT, LIVER, S-9, AROCLOR 1254 (10%), Method: STANDARD PLATE): inactive; negative

Question: With `c1ccc(-c2nc3ccccc3o2)cc1` as the compound, how does the mutagenic call [1] read?
Answer: The mutagenic call was “inactive; negative”.

Question: And the mutagenic call (Test System: AMES SALMONELLA TYPHIMURIUM, Strain/Indicator: TA98, Metabolic Activation: S-9, Method: STANDARD PLATE)?
Answer: The mutagenic call was “inactive; negative”.

Question: For `O=S(=O)(O)Oc1cccc2c1cc1ccc3cccc4ccc2c1c34`, which mutagenic call [4] is on record?
Answer: Its mutagenic call is “inactive; negative”.

Question: And the mutagenic call (Test System: AMES SALMONELLA TYPHIMURIUM, Strain/Indicator: TA98, Metabolic Activation: RAT, LUNG, S-9, Method: PREINCUBATION)?
Answer: Its mutagenic call is “inactive; negative”.

Question: Which results are given for `COc1cc2c(c(OC)c1CO)C(=O)c1ccccc1C2=O`?
Answer: mutagenic call [4]: inactive; negative; mutagenic call (Test System: AMES SALMONELLA TYPHIMURIUM, Strain/Indicator: TA98, Metabolic Activation: RAT, LIVER, S-9, PCB, Method: PREINCUBATION): inactive; negative; mutagenic call [5]: inactive; negative; mutagenic call (Test System: AMES SALMONELLA TYPHIMURIUM, Strain/Indicator: TA100, Metabolic Activation: RAT, LIVER, S-9, PCB, Method: PREINCUBATION): inactive; negative

Question: How did the mutagenic call [1] turn out when `CCN(CC)C(=S)S[C@@H]1O[C@H](CO)[C@@H](O)[C@H](O)[C@H]1O` was run?
Answer: The mutagenic call was “inactive; negative”.

Question: What about the mutagenic call [6] of the same compound?
Answer: The mutagenic call was “inactive; negative”.

Question: What about the mutagenic call [2] of the same compound?
Answer: Its mutagenic call is “inactive; negative”.

Question: What about the mutagenic call [7] of the same compound?
Answer: The mutagenic call was “inactive; negative”.

Question: How did the mutagenic call (Test System: CHINESE HAMSTER V-79, Strain/Indicator: V-79/8-AZAGUANINE, Metabolic Activation: NONE, Method: STANDARD PLATE) turn out when `CN(N=O)C(=O)NC1O[C@H](CO)[C@@H](O)[C@H](O)[C@H]1O` (stereo partly drawn) was run?
Answer: The mutagenic call was “active; positive”.

Question: With `ClC(Cl)(Cl)CC1CO1` (stereo not drawn) as the compound, how does the mutagenic call (Test System: AMES SALMONELLA TYPHIMURIUM, Strain/Indicator: TA100, Metabolic Activation: HAMSTER, LIVER, S-9, AROCLOR 1254 (10%), Method: PREINCUBATION) read?
Answer: The mutagenic call was “inactive; negative”.

Question: And the mutagenic call [5]?
Answer: Its mutagenic call is “active; positive”.

Question: And the mutagenic call (Test System: AMES SALMONELLA TYPHIMURIUM, Strain/Indicator: TA100, Metabolic Activation: RAT, LIVER, S-9, AROCLOR 1254 (10%), Method: PREINCUBATION)?
Answer: The mutagenic call was “inactive; negative”.

Question: And the mutagenic call (Test System: AMES SALMONELLA TYPHIMURIUM, Strain/Indicator: TA1535, Metabolic Activation: HAMSTER, LIVER, S-9, AROCLOR 1254 (10%), Method: PREINCUBATION)?
Answer: Its mutagenic call is “inactive; negative”.

Question: What about the mutagenic call [8] of the same compound?
Answer: Its mutagenic call is “inactive; negative”.

Question: What about the mutagenic call (Test System: AMES SALMONELLA TYPHIMURIUM, Strain/Indicator: TA1535, Metabolic Activation: RAT, LIVER, S-9, AROCLOR 1254 (10%), Method: PREINCUBATION) of the same compound?
Answer: Its mutagenic call is “inactive; negative”.

Question: What does the source list for `Cc1cc(O)c2c(c1)C(=O)C13C(=C2O)C(=O)C2C(O)C1C1C(O)C3C(=O)C3=C(O)c4c(O)cc(C)cc4C(=O)C321` (stereo not drawn)?
Answer: mutagenic call [6]: inactive; negative; mutagenic call [7]: inactive; negative; mutagenic call [3]: inactive; negative; mutagenic call (Test System: AMES SALMONELLA TYPHIMURIUM, Strain/Indicator: TA1537, Metabolic Activation: RAT, LIVER, S-9, AROCLOR 1254, Method: STANDARD PLATE): inactive; negative

Question: How did the mutagenic call (Test System: AMES SALMONELLA TYPHIMURIUM, Strain/Indicator: TA97, Metabolic Activation: HAMSTER, LIVER, S-9, AROCLOR 1254 (5, 10 OR 30%), Method: PREINCUBATION) turn out when `NC(N)=NC(=O)c1nc(Cl)c(N)nc1N` was run?
Answer: The mutagenic call was “inactive; negative”.

Question: What about the mutagenic call (Test System: AMES SALMONELLA TYPHIMURIUM, Strain/Indicator: TA97, Metabolic Activation: NONE, Method: PREINCUBATION) of the same compound?
Answer: The mutagenic call was “inactive; negative”.

Question: What about the mutagenic call (Test System: AMES SALMONELLA TYPHIMURIUM, Strain/Indicator: TA97, Metabolic Activation: RAT, LIVER, S-9, AROCLOR 1254 (5, 10 OR 30%), Method: PREINCUBATION) of the same compound?
Answer: The mutagenic call was “inactive; negative”.

Question: And the mutagenic call (Test System: AMES SALMONELLA TYPHIMURIUM, Strain/Indicator: TA98, Metabolic Activation: HAMSTER, LIVER, S-9, AROCLOR 1254 (30%), Method: PREINCUBATION)?
Answer: The mutagenic call was “inactive; negative”.

Question: And the mutagenic call [4]?
Answer: Its mutagenic call is “inactive; negative”.

Question: What about the mutagenic call (Test System: AMES SALMONELLA TYPHIMURIUM, Strain/Indicator: TA98, Metabolic Activation: RAT, LIVER, S-9, AROCLOR 1254 (30%), Method: PREINCUBATION) of the same compound?
Answer: The mutagenic call was “inactive; negative”.

Question: And the mutagenic call (Test System: AMES SALMONELLA TYPHIMURIUM, Strain/Indicator: TA100, Metabolic Activation: HAMSTER, LIVER, S-9, AROCLOR 1254 (30%), Method: PREINCUBATION)?
Answer: The mutagenic call was “inactive; negative”.

Question: What about the mutagenic call [5] of the same compound?
Answer: The mutagenic call was “inactive; negative”.

Question: And the mutagenic call (Test System: AMES SALMONELLA TYPHIMURIUM, Strain/Indicator: TA100, Metabolic Activation: RAT, LIVER, S-9, AROCLOR 1254 (30%), Method: PREINCUBATION)?
Answer: The mutagenic call was “inactive; negative”.

Question: And the mutagenic call (Test System: AMES SALMONELLA TYPHIMURIUM, Strain/Indicator: TA1535, Metabolic Activation: HAMSTER, LIVER, S-9, AROCLOR 1254 (30%), Method: PREINCUBATION)?
Answer: The mutagenic call was “inactive; negative”.

Question: What about the mutagenic call [8] of the same compound?
Answer: The mutagenic call was “inactive; negative”.

Question: What about the mutagenic call (Test System: AMES SALMONELLA TYPHIMURIUM, Strain/Indicator: TA1535, Metabolic Activation: RAT, LIVER, S-9, AROCLOR 1254 (30%), Method: PREINCUBATION) of the same compound?
Answer: The mutagenic call was “inactive; negative”.

Question: What about the mutagenic call (Test System: AMES SALMONELLA TYPHIMURIUM, Strain/Indicator: TA1537, Metabolic Activation: HAMSTER, LIVER, S-9, AROCLOR 1254 (30%), Method: PREINCUBATION) of the same compound?
Answer: Its mutagenic call is “active; positive”.

Question: What about the mutagenic call (Test System: AMES SALMONELLA TYPHIMURIUM, Strain/Indicator: TA1537, Metabolic Activation: NONE, Method: PREINCUBATION) of the same compound?
Answer: The mutagenic call was “active; positive”.

Question: And the mutagenic call (Test System: AMES SALMONELLA TYPHIMURIUM, Strain/Indicator: TA1537, Metabolic Activation: RAT, LIVER, S-9, AROCLOR 1254 (30%), Method: PREINCUBATION)?
Answer: The mutagenic call was “active; positive”.

Question: With `COc1cccc2c1C(=O)c1c(O)c3c(c(O)c1C2=O)C[C@@](O)(C(C)=NNC(=O)c1ccccc1)C[C@@H]3O[C@H]1C[C@H](N)[C@H](O)[C@H](C)O1` as the compound, how does the mutagenic call (Test System: AMES SALMONELLA TYPHIMURIUM, Strain/Indicator: TA97, Metabolic Activation: NONE, Method: STANDARD PLATE) read?
Answer: The mutagenic call was “inactive; negative”.

Question: And the mutagenic call [1]?
Answer: Its mutagenic call is “active; positive”.

Question: What about the mutagenic call [2] of the same compound?
Answer: The mutagenic call was “inactive; negative”.

Question: And the mutagenic call (Test System: AMES SALMONELLA TYPHIMURIUM, Strain/Indicator: TA104, Metabolic Activation: NONE, Method: STANDARD PLATE)?
Answer: The mutagenic call was “inactive; negative”.

Question: What about the mutagenic call (Test System: AMES SALMONELLA TYPHIMURIUM, Strain/Indicator: TA2637, Metabolic Activation: NONE, Method: STANDARD PLATE) of the same compound?
Answer: Its mutagenic call is “active; positive”.

From PubChem BioAssay AID1259407 (Chemical Carcinogenesis Research Information System (CCRIS), 2018)
